Assay [1] has as its system Bacillus subtilis. Kind of assay: Effect on Bacillus subtilis in plate diffusion test; No growth inhibition. In kind it is functional, organism-based.
Assay [2] has as its system Bacillus subtilis. Briefly: Effect on Bacillus subtilis in plate diffusion test; + indicates clearance zones. In kind it is functional, organism-based.
Assay [3] deals with Bacillus subtilis. Briefly: Minimum inhibitory concentration against Bacillus subtilis. In kind it is functional.
Assay [4] relates to Bacillus subtilis. Kind of assay: Effect on Bacillus subtilis in plate diffusion test; ++ indicates Srong well defined clearance zone. In kind it is functional, organism-based.

Values after ≈ are worked out from the molar mass of the structure shown. Active and inactive are the calls of the source.

The term MIC denotes the smallest concentration in the dilution series that meets the test's criterion for growth inhibition. A lower MIC goes with inhibition by little substance.

On to `Cc1ccc(C(=O)OC(C)c2cccc3nc4c(C(=O)O)cccc4nc23)c(OCc2ccccc2)c1` (configuration not stated), for which the Activity entry in the assay on Bacillus subtilis [1] is “No growth inhibition”.
As to `CC(OC(=O)c1c(Cl)cccc1Cl)c1cccc2nc3c(C(=O)O)cccc3nc12` (configuration not stated), the Activity result with Bacillus subtilis [2] is “clearance zones”. This compound also had an MIC in the assay with Bacillus subtilis [3] of 2.71 mg/L (≈ 6.14 µM).
As to `CC(OC(=O)c1c(Cl)cc(Cl)cc1Cl)c1cccc2nc3c(C(=O)O)cccc3nc12` (configuration not stated), in the assay with Bacillus subtilis [4], the Activity result is reported as “Srong well defined clearance zone”. The compound also returned an MIC in the assay on Bacillus subtilis [3] of 2.1 mg/L (≈ 4.41 µM).
As for `CC(OC(=O)c1cccc(Cl)c1)c1cccc2nc3c(C(=O)OC(C)c4cccc5nc6c(C(=O)O)cccc6nc45)cccc3nc12` (configuration not stated), the Activity result in the assay with Bacillus subtilis [4] was “Srong well defined clearance zone”. Further, in the assay with Bacillus subtilis [3], 0.72 mg/L (≈ 1.1 µM) was the least that counted as inhibitory (MIC).
As for `C[S+](C)[O-]`, in the assay with Bacillus subtilis [1], the outcome was inactive.
In the case of `CC(OC(=O)c1ccccc1Cl)c1cccc2nc3c(C(=O)O)cccc3nc12` (configuration not stated), the Activity entry in the assay with Bacillus subtilis [2] was “clearance zones”. In the assay with Bacillus subtilis [3], inhibition of growth (MIC) required 3.35 mg/L (≈ 8.23 µM).
Take `CC(OC(=O)c1cccc(Cl)c1)c1cccc2nc3c(C(=O)O)cccc3nc12` (configuration not stated): the Activity entry with Bacillus subtilis [4] is given as “Srong well defined clearance zone”. The same compound came in with an MIC in the assay on Bacillus subtilis [3] of 0.07 mg/L (≈ 0.172 µM).
Regarding `CC(OC(=O)c1ccc(F)cc1)c1cccc2nc3c(C(=O)O)cccc3nc12` (configuration not stated), the Activity result in the assay on Bacillus subtilis [2] is “clearance zones”. In the assay on Bacillus subtilis [3], this compound showed an MIC of 3.93 mg/L (≈ 10.1 µM).
For `CC(OC(=O)c1ccccc1[N+](=O)[O-])c1cccc2nc3c(C(=O)O)cccc3nc12` (configuration not stated) the same measures were “clearance zones” and 2.49 mg/L (≈ 5.97 µM).
On to `Cc1ccc(OCc2ccccc2)c(C(=O)OC(C)c2cccc3nc4c(C(=O)O)cccc4nc23)c1` (configuration not stated), for which the Activity result in the assay on Bacillus subtilis [1] is “No growth inhibition”.
Same read-out and setting: the value for `CC(OC(=O)c1cccc(F)c1)c1cccc2nc3c(C(=O)O)cccc3nc12` (configuration not stated) was “No growth inhibition”; that for `CC(OC(=O)c1ccccc1F)c1cccc2nc3c(C(=O)O)cccc3nc12` (configuration not stated) was “No growth inhibition”.
With `Cc1cccc(C(=O)OC(C)c2cccc3nc4c(C(=O)O)cccc4nc23)c1OCc1ccccc1` (configuration not stated), in the assay with Bacillus subtilis [2], the Activity entry is on record as “clearance zones”. The same compound returned an MIC in the assay on Bacillus subtilis [3] of 3.73 mg/L (≈ 7.57 µM).
With `CC(OC(=O)c1c(F)cccc1F)c1cccc2nc3c(C(=O)O)cccc3nc12` (configuration not stated), the Activity entry with Bacillus subtilis [1] was “No growth inhibition”.
